Assay results as given in ChEMBL document CHEMBL3585331, “Recent advances for FLAP inhibitors” (Bioorg Med Chem Lett, 2015).

What was measured:
Blood [1] = assay: Inhibition of LTB4 production in human whole blood; assay type: functional, tissue-based
Blood [2] = assay: Inhibition of A23187-induced LTB4 production in human whole blood pre-incubated for 15 mins before A23187 stimulation for another 15 mins; assay type: functional, tissue-based
[3] = target: T1, Arachidonate 5-lipoxygenase-activating protein (Homo sapiens, UniProt P20292); assay: Binding affinity to FLAP (unknown origin)
T1 sequence (P20292 whole entry): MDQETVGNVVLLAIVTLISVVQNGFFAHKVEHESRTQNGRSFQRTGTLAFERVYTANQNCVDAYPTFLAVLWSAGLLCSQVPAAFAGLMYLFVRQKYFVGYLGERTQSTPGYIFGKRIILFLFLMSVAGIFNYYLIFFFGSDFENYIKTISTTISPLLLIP

Row | SMILES | IC50 (Blood [1]) [nM] | IC50 (Blood [2]) [nM] | IC50 [3] [nM]
1 | Nc1cnc(-c2ccc(C3CCC3)c(Oc3ncccn3)c2F)cn1 | – | 66 | –
2 | CC(C)(C)Sc1c(CC(C)(C)C(=O)O)n(Cc2ccc(Cl)cc2)c2ccc(OCc3ccc4ccccc4n3)cc12 [QUIFLAPON] | 500 | – | 36

Other lines, results leading:

Row | IC50 (Blood [1]) [nM] | IC50 (Blood [2]) [nM] | IC50 [3] [nM] | SMILES
3 | 120 | – | – | CC(C)Cc1ccc(C(C)c2nc3ccccc3n2Cc2ccccc2Cl)cc1 (stereo unspecified)
4 | 12 | – | – | CC(C)C(C)(c1ccc(-c2ccc(C(C)(C)O)nn2)cc1)c1ccc(OCc2ccccn2)cn1 (stereo unspecified)
5 | 62 | – | – | CC(C)(O)CNC(=O)c1ccc(C2(c3ccc(-c4cnc(N)cn4)cc3)CCCO2)cn1 (stereo unspecified)
